Results published in patent US20100256385A1, “PROSTAGLANDIN E RECEPTOR ANTAGONISTS” (ALLERGAN, INC., priority 2009, published 2010).

Experiments:
human osteoclasts = assay: Calcium Response in human osteoclasts; format: cell-based; conditions: for Calcium Response: agonist alone (FIG. 1, FIG. 2)

| SMILES | Calcium Response (human osteoclasts) | Block of the Calcium Response initiated by PGE2 (human osteoclasts; response initiated by PGE2 (FIG. 3)) | melting point |
| --- | --- | --- | --- |
| CCCCC[C@H](O)/C=C/[C@H]1[C@H](O)CC(=O)[C@@H]1C/C=C\CCCC(=O)O [PG-2] | does not cause a Calcium Response | – | – |
| CCCCC[C@H](O)/C=C/[C@H]1[C@H](O)CC(=O)[C@@H]1C/C=C\CCCC(=O)OCC(O)CO (stereo partly shown) [PG-2 Glycerol Ester] | induces a Calcium Response | – | – |
| O=C(CCc1ccc(F)cc1C[C@@H]1[C@H](c2nc(C(=O)NCCCCC3CCCCC3)co2)[C@H]2CC[C@H]1O2)NC(CO)CO [Example 1, N-(1,3-Dihydroxyprop-2-yl)-3-(2-{(1R,2R,3S,4R)-3-[4-(4-cyclohexyl-butylcarbamoyl)-oxazol-2-yl]-7-oxa-bicyclo[2.2.1]hept-2-ylmethyl}-4-fluoro-phenyl)-propionamide] | – | blocked | 165 to 166 °C |
